This passage reports IC50 results from paper PMC4345494, “Cheaper faster drug development validated by the repositioning of drugs against neglected tropical diseases” (Journal of the Royal Society Interface, 2015).

For the experiment, the target named is P. vivax DHFR (dihydrofolate reductase) (Plasmodium vivax, UniProt O02604). Put plainly: DHFR enzyme inhibition assay (supported by growth assay of yeast expressing PvDHFR). Format: biochemical.

Each structure is given as a SMILES string.

P. vivax DHFR (dihydrofolate reductase), sequence (O02604 1-237): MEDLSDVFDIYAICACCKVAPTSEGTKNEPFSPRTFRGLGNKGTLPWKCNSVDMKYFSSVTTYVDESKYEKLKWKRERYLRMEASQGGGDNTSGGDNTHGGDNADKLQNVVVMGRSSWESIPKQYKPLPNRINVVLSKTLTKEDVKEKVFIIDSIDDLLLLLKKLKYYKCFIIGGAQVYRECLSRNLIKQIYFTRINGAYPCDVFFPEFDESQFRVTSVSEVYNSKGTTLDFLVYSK

One may read the IC50 as the midpoint of a concentration-inhibition curve. Lower therefore signals higher potency. For `CO[C@@H]1[C@H](OC(=O)NC(=O)CCl)CC[C@]2(CO2)[C@H]1[C@@]1(C)O[C@@H]1CC=C(C)C` [TNP-470], half-maximal inhibition (IC50) required 0.16 µM.
